Entries after “also recorded” stand apart in the source; their conditions may differ. In the oligonucleotide strings, read from the 5' end, every base follows the letter of its sugar. An asterisk marks phosphorothioate; unmarked linkages are phosphodiester. Other units and linkages are bracketed, terminal groups are in braces. A string of capitals states the bases alone. e = 2'-O-(2-methoxyethyl) (MOE); [5mC] = 5-methylcytosine; d = 2'-deoxy (DNA)
Tests used:
PPARγ = PPARγ mRNA expression in adipocytes (real-time PCR); format: cell-based, human; conditions: preadipocytes, 250 nM, day nine
[1] = tested on: preadipocytes / differentiating adipocytes; test: Adipocyte differentiation assay, markers taken together; format: cell-based, human; conditions: for expression levels of markers of adipocyte differentiation (TG, leptin, aP2, HSL, Glut4, PPARγ): preadipocytes, 250 nM, day nine post-transfection, relative to ISIS-29848; for five markers of adipocyte differentiation: % of UTC (Table 55); for 5 markers of adipocyte differentiation: % of UTC (Table 75)
Protocol: Oligomeric compounds of the invention are tested for their effects on preadipocyte differentiation. […] For the other adipocyte differentiation markers assayed, an oligomeric compound targeted to PPAR-γ, also known to inhibit adipocyte differentiation, may be used as a positive control.
Cells are transfected as described herein. […] Untreated control cells receive LIPOFECTIN™ only.
After the cells have reach confluence (approximately three days), they are exposed for an additional three days to differentiation medium (Zen-Bio, Inc., Research Triangle Park, N.C.) containing a PPAR-γ agonist, IBMX, dexamethasone, and insulin. Cells are then fed adipocyte medium (Zen-Bio, Inc.), which is replaced at 2 or 3 day intervals.
For assaying adipocyte differentiation, expression of the four hallmark genes, HSL, aP2, Glut4, and PPARγ, as well as triglyceride (TG) accumulation and leptin secretion were measured in adipocytes transfected with the uniform 2′-MOE phosphorothioate (PS) oligomeric compounds previously described. Cells are lysed on day nine post-transfection, in a guanadinium-containing buffer and total RNA is harvested. Real-time PCR is performed (Applied Biosystems, Prism 7700) on the total RNA using the following primer/probe sets for the adipocyte differentiation hallmark genes: (aP2): forward 5′-GGTGGTGGAATGCGTCATG-3′ (SEQ ID NO: 746), reverse 5′-[…]-3′ (SEQ ID NO: 747), probe 5′-FAM-[…]-TAMRA-3′ (SEQ ID NO: 748); (Glut4): forward 5′-GGCCTCCGCAGGTTCTG-3′ (SEQ ID NO: 749), reverse 5′-[…]-3′ (SEQ ID NO: 750), probe 5′-FAM-[…]-TAMRA-3′ (SEQ ID NO: 751); (HSL): forward 5′-ACCTGCGCACAATGACACA-3′ (SEQ ID NO: 752), reverse 5′-[…]-3′ (SEQ ID NO: 753), probe 5′-FAM-[…]-TAMRA-3′ (SEQ ID NO: 754); (PPAR-γ): forward 5′-[…]-3′ (SEQ ID NO: 755), reverse 5′-[…]-3′ (SEQ ID NO: 756), probe 5′-FAM-[…]-TAMRA-3′ (SEQ ID NO: 757). The amount of total RNA in each sample is determined using a Ribogreen Assay (Molecular Probes, Eugene, Oreg.), and expression levels of the adipocyte differentiation hallmark genes were normalized to total RNA. Leptin protein and triglyceride levels as well as mRNA levels for each of the four adipocyte differentiation hallmark genes are expressed relative to control levels (control=treatment with ISIS-29848 (SEQ ID NO: 737)).
In some embodiments, differentiating adipocytes were treated with uniform 2′-MOE phosphorothioate oligomeric compounds according to the methods described above, and the expression of the four hallmark genes, HSL, aP2, Glut4, and PPARγ, as well as triglyceride (TG) accumulation were measured. […] Undifferentiated adipocytes were also compared as a negative control. […] The effects of TNF-α, also known to inhibit adipocyte differentiation, were also measured.

HeLa cells = test: Cell cycle assay in HeLa cells; format: cell-based, human; conditions: HeLa, 150 nM
[2] = tested on: BJ, B16-F10, T47D, T47Dp53 and HeLa cells; test: Cell cycle assay (propidium iodide flow cytometry), cell line panel; format: cell-based; conditions: 150 nM, 72 hours (Table 29)
PEPCK-c = PEPCK-c mRNA expression in HepG2 cells; format: cell-based, human; conditions: HepG2, 1 nM insulin, 100 nM
T47D cells = test: Caspase-3 activity assay (apoptosis) in T47D cells; conditions: caspase assay, 200 nM; conclusion from Tables 9-12

AACCATACAACCTACTACCTCA (chemistry not given here) [ISIS 327931, uniform 2′-MOE PS; targets let-7c]
expression of PPAR-γ (PPARγ): significant increase in the expression of PPAR-γ
expression levels of markers of adipocyte differentiation (TG, leptin, aP2, HSL, Glut4, PPARγ) [1]: increase in four out of six markers of adipocyte differentiation; also recorded: increase in expression levels for several markers of adipocyte differentiation

AAGGGATTCCTGGGAAAACTGGAC (chemistry not given here) [ISIS 327933, uniform 2′-MOE PS; targets mir-145]
expression levels of markers of adipocyte differentiation (TG, leptin, aP2, HSL, Glut4, PPARγ) [1]: increase in all six markers of adipocyte differentiation
phase of the cell cycle in which cells arrest or delay (HeLa cells; 24 hours): G2/M-phase
phase of the cell cycle in which cells arrest or delay (HeLa cells; 48 hours): subG1-phase
percentage of cells in the G2/M phase [2]: increased percentage of cells in the G2/M phase

AATCTCATTTTCATACTTGCA (anti-miR; chemistry not fully specified) [ISIS 328114, uniform 2′-MOE PS; targets hypothetical miRNA-138]
five markers of adipocyte differentiation ([1]; differentiating adipocytes): increase in all five markers of adipocyte differentiation
reduction of PEPCK-c mRNA expression (PEPCK-c): 59%

CTACCTGCACGAACAGCACTTT (chemistry not given here) [ISIS 340348, uniform 2′-MOE PS; targets mir-93]
5 markers of adipocyte differentiation ([1]; differentiating adipocytes): significantly reduce the expression levels of 3 of the 5 markers of adipocyte differentiation
percentage of cells with hypodiploid DNA content (subG1) [2]: increased percentage of cells with hypodiploid DNA content

ISIS 328400: 5-10-5 2′-MOE gapmer PS; targets mir-196-2 pri-miRNA (eA*eG*eT*eT*e[5mC]*dA*dA*dA*dA*d[5mC]*dT*d[5mC]*dA*dA*dT*e[5mC]*e[5mC]*e[5mC]*eA*eA)
five markers of adipocyte differentiation ([1]; differentiating adipocytes): reduce the expression levels of all five markers of adipocyte differentiation
apoptosis in T47D cells (T47D cells): induce apoptosis

ISIS 346685: SEQ ID NO: 1884, targeted to mir-27 (Mourelatos) (antisense GGCGGAACUUAGCCACUGUGAA; all 2'-MOE, all phosphorothioate, methylation of C and T or U not given here)
5 markers of adipocyte differentiation ([1]; differentiating adipocytes): significant increases in all 5 markers of adipocyte differentiation

ISIS 346687: SEQ ID NO: 1802, targeted to mir-129-1 (antisense AGCAAGCCCAGACCGCAAAAAG; all 2'-MOE, all phosphorothioate, methylation of C not given here)
5 markers of adipocyte differentiation ([1]; differentiating adipocytes): significantly reduce the expression levels of 3 of the 5 markers of adipocyte differentiation

ISIS 348117: SEQ ID NO: 1860, targeted to mir-321-1 (antisense GAACCCACAAUCCCUGGCUUA; all 2'-MOE, all phosphorothioate, methylation of C and T or U not given here)
5 markers of adipocyte differentiation ([1]; differentiating adipocytes): significantly reduce the expression levels of 3 of the 5 markers of adipocyte differentiation

ISIS 348127: SEQ ID NO: 1869, targeted to mir-27b (antisense GCAGAACUUAGCCACUGUGAA; all 2'-MOE, all phosphorothioate, methylation of C and T or U not given here)
5 markers of adipocyte differentiation ([1]; differentiating adipocytes): significant increases in all 5 markers of adipocyte differentiation

TCCACAAAGCTGAACATGTCT (anti-miR; chemistry not fully specified) [ISIS 328117, uniform 2′-MOE PS; targets hypothetical miRNA-144]
expression of the other four hallmark genes (HSL, aP2, Glut4, PPARγ) ([1]; differentiating adipocytes, control ISIS 342673): reduction of expression of the other four hallmark genes

TCCTGGATGATATCTACCTC (chemistry not fully specified) [ISIS 328677, 5-10-5 2′-MOE gapmer PS; targets hypothetical miRNA-120 pri-miRNA]
five markers of adipocyte differentiation ([1]; differentiating adipocytes): reduce the expression levels of all five markers of adipocyte differentiation
